Experiment [1] concerns Human MDA-MB-231 breast cancer cells. Put plainly: Cell viability, crystal violet. It counts as cell-based. Conditions: increasing doses of cisplatin ±100 nM MitoQ, 48 h. As to the method:
[…] The solution was carefully removed and plates were washed twice with water. After drying protected by light, cells were resuspended in 50 μl DMSO and the plates were read with a Victor X4 plate reader (Perkin®).

In another experiment the test system is MDA-MB-231 cancer cells. In words: Cell morphology, H&E. It counts as cell-based, human. As to conditions: MitoQ 100 to 500 nM, 48 h. As for the experimental part: (§1) To visualize cell morphology, MDA-MB-231, SkBr3 and MDA-MB-436 cells were seeded in 24-well plates and treated ±MitoQ for 48 h, fixed in 100% methanol for 10 min stained with hematoxylin and eosin (H&E) for 10 min each, washed with water and dried. Pictures were acquired on an Axiovert 40 CFL microscope (Zeiss®) equipped with a MRC camera (Zeiss®).

Another experiment has as its system SkBr3 cancer cells. In words: Cell morphology, H&E. It counts as cell-based, human. Conditions: MitoQ 100 to 500 nM, 48 h. As to the method:
as §1

The test system of experiment [2] is MDA-MB-231 and SkBr3 cells. In words: RNA sequencing, transcripts common to both cell lines. It counts as cell-based, human. As to conditions: MitoQ 500 nM, 48 h. As for the experimental part: MDA-MB-231 and SkBr3 cancer cells were treated ±MitoQ for 48 h. Total mRNA was then extracted using the NucleoSpin RNA kit (Macherey-Nagel®), including DNAse treatment in the intermediary steps. mRNAs were quantified using the Qubit BR dsRNA assay kit (Thermo Fisher Scientific®), and mRNA integrity was evaluated on the Agilent 2100 Bioanalyzer using the RNA 6000 nano kit (Agilent®). All samples had RNA integrity number values ≥7.5. Libraries from control and treated samples were prepared starting from 150 ng of total mRNA using the KAPA RNA HyperPrep Kit with RiboErase (HMR) kit (KAPA Biosystems®) following the manufacturer's recommendations (KR1351—v1.16). Libraries were equimolarly pooled and sequenced on a single lane of an Illumina® NovaSeq 6000 platform. All libraries were sequenced at a depth of >50 million paired-end reads (2×100 bp reads) per sample. All sequencing data were analyzed using the Automated Reproducible MOdular workflow for preprocessing and differential analysis of RNAseq data (ARMOR) pipeline. In this pipeline, reads underwent a quality check using FastQC. Quantification and quality control results were summarized in a MultiQC report before being mapped using Salmon to the transcriptome index that was built using all Ensembl cDNA sequences obtained in the Homo_sapiens.GRCh38.cdna.all.fa file. Then, estimated transcript abundances from Salmon were imported into R using the tximeta package, and analyzed for differential gene expression with edgeR. To get a robust signature, only genes with |log 2 Fold Change|>1 and P<0.01 were retained.
While EMT and sternness markers are usual suspects when testing antimetastatic strategies, it was decided to go deeper in the understanding of the molecular effects of MitoQ, and performed unbiased RNA sequencing (RNAseq) using cells treated for 48 h±MitoQ (500 nM). […] On independent samples upon the same conditions (including |log 2 Fold Change|>1 and P<0.01), RT-qPCR on the two cell lines validated all genes as potential biomarkers of human breast cancer cell response to MitoQ, to the exception of EID1, PEG10, FTH1 and NUPR1 (FIG. 12A-M and Table 7).

Experiment [3] has as its system MDA-MB-231 human breast cancer cells. In words: Metastatic take assay, tail vein injection of pretreated cells. Conditions: cells pretreated 6 h with 1 μM MitoQ. It counts as in vivo, mouse. As for the experimental part: For metastasis take assays, cancer cells were pretreated ±MitoQ for 6 h, and 10^6 viable cells were injected into the tail vein of five weeks-old female Rj:NMRI-Foxn1nu/nu mice (Janvier). After 4 weeks, mice were sacrificed and the lungs insufflated with 3 mL of Indian ink (15% in ddH2O). Mouse lungs were removed, washed with PBS and incubated overnight in Fekete's solution (700 mL/L 100% ethanol, 32 mL/L 37% formalin, 40 mL/L glacial acetic acid, diluted in ddH2O). The next morning, lungs were transferred to a 70% ethanol solution and were further examined under a Stemi 2000-C dissection stereomicroscope (Zeiss®) to count the number of metastasis per lung.

The test system of the next experiment is MDA-MB-231 cells. Put plainly: Clonogenic assay, adherent. It counts as cell-based, human. Conditions: MitoQ 100 nM, 48 h. As to the method:
(§2) For adherent assays, MDA-MB-231 and SKBR3 cells were pre-treated for 48 h±MitoQ, and seeded (1,000 to 2,000 cells/well) in 6-well plates. After colony formation (2 weeks), cells were fixed and stained with 0.5% crystal violet in a 10% ethanol solution, for 30 min. Colonies were washed with water and counted. Results are expressed as surviving fraction (SF), where […].

Another experiment relates to SkBr3 cells. In words: Clonogenic assay, adherent. Conditions: MitoQ 100 nM, 48 h. It counts as cell-based, human. As for the experimental part:
as §2

Setting [4] is: |log 2 fold change|>1 and P<0.01.

Molecules are shown by their SMILES.

Consider `COC1=C(OC)C(=O)C(CCCCCCCCCC[P+](c2ccccc2)(c2ccccc2)c2ccccc2)=C(C)C1=O` [MitoQ], for which, in experiment [1], the “cancer cell killing activity, cisplatin combined with MitoQ” value is “did not interfere”. The Morphological changes entry in the experiment with MDA-MB-231 cancer cells was “not obvious”. Further, the Morphological changes result in the experiment with SkBr3 cancer cells was “not obvious”. In addition, in experiment [2] (RNAseq, both cell lines), the “EID1 and PEG10 gene transcripts” value is listed as “downregulated”; the “PHGDH-1, SLC7A11, SERPINE1, FTH1, TXNRD1, PSAT1, PCK2, G6PD, ASNS, SLC6A9 and NUPR1 gene transcripts” value is listed as “upregulated”. Moreover, in experiment [2] (setting [4]), the “number of commonly induced transcripts” value turned out to be 11 and the “number of commonly repressed transcripts” value is given as 2. Moreover, in experiment [3] (at necropsy, four weeks), the mice metastasis-free was determined as 36.4%, the “mice with <2 metastasis” value is 27.2% and the “mice with >2 lung metastases” value was 36.4%. The “metastasis developed vs mice that received vehicle-treated cells” value in experiment [3] (four weeks after injection of 10^6 cells) is “significantly less”. In addition, the “clonogenicity in Petri dishes allowing adhesion” value in the experiment with MDA-MB-231 cells was “largely inhibited”. In addition, in the experiment with SkBr3 cells, the “clonogenicity in Petri dishes allowing adhesion” value was “largely inhibited”.
